Measurements as given in article PMC7311426, “An amphipathic peptide with antibiotic activity against multidrug-resistant Gram-negative bacteria” (Nature Communications, 2020).
Marks after values point to notes of the source that are not given here.

Key:
Assay in all cases: microbe, parasite or virus in culture
[1] = test system: P. aeruginosa; settings: mode of 6 replicates
Summary of the method: (§1)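 Broth microdilution in MHB, 2-fold 12-point series from 128 or 64 down to 0.06 or 0.03 μg mL^−1, 5 × 10^5 CFU mL^−1. Extra runs in CAMHB per CLSI and in MHB with 1% agarose; n ≥ 6.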

[2] = test system: S. aureus; settings: S. aureus ATCC 25923 MSSA; MHB; mode of 6 replicates
Summary of the method: as §1

[3] = test system: K. pneumoniae; settings: mode of 6 replicates
Summary of the method: as §1

[4] = test system: A. baumannii; settings: mode of 6 replicates
Summary of the method: as §1

[5] = test system: S. enterica Typhi; settings: S. enterica Typhi ATCC 14028 control strain, CDC 6516-60; CAMHB; mode of 6 replicates
Summary of the method: as §1

[6] = test system: E. coli
Summary of the method: as §1

[7] = test system: A. baumannii clinical isolates
Summary of the method: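 MIC90 from CLSI broth microdilution (M07-A9) in two clinical-isolate panels. US panel (331 isolates, 2010-2012): AA139 diluted in 0.01% acetic acid/0.1% BSA. Worldwide panel (445 isolates, 2011-2013, four regions): CAMHB, with 0.002% Tween 80 added for AA139 and polymyxin B.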

[8] = A. baumannii, worldwide isolates 2011-2013, n = 108

“polymyxin B [PolymyxinB, reference compound]” was tested, and the “BMD MIC” value ([1]; P. aeruginosa ATCC 27853 control strain, CAMHB) was no more than 0.25 µg/mL, the “BMD MIC” value ([1]; P. aeruginosa ATCC 27853 control strain, MHB) was 0.25 µg/mL and the “BMD MIC” value ([1]; P. aeruginosa FADDI-070, MDR, PmxR, MHB/CAMHB) was 32 µg/mL. For the same substance, the “BMD MIC” value [2] was 128 µg/mL, the “BMD MIC” value ([3]; K. pneumoniae ATCC 13883 type strain (polymyxin/colistin heteroresistant), MHB) was 0.5-8# μg mL-1 and the “BMD MIC” value ([3]; K. pneumoniae ATCC 700603 (K6), MDR, OXA-2/SHV-18, CAMHB) was 0.06 µg/mL. The “BMD MIC” value ([3]; K. pneumoniae ATCC 700603 (K6), MDR, OXA-2/SHV-18, MHB) was 0.125 µg/mL, the “BMD MIC” value ([3]; K. pneumoniae BAA-2146, MDR, ESBL, NDM-1 pos, MHB) was 0.125 µg/mL and the “BMD MIC” value ([3]; K. pneumoniae Greece CI 8_GR_13, XDR, KPC-2, PmxR, MHB) was 32 µg/mL. For the same substance, the “BMD MIC” value ([4]; A. baumannii ATCC 19636 type strain, CAMHB) was 0.06 µg/mL, the “BMD MIC” value ([4]; A. baumannii ATCC 19636 type strain, MHB) was 0.03 µg/mL and the “BMD MIC” value ([4]; A. baumannii Greece CI, XDR, PmxR, MHB) was 8 to 16 µg/mL. The “BMD MIC” value [5] was 0.03 µg/mL, the “MIC against E. coli AID#172 MDR clinical isolate” value ([6]; BMD) was 0.03 µg/mL and the “BMD MIC” value ([6]; E. coli ATCC 25922 FDA control strain, CAMHB, mode of 6 replicates) was 0.125 µg/mL. The “BMD MIC” value ([6]; E. coli ATCC 25922 FDA control strain, MHB, mode of 6 independent biological replicates) was 0.25 µg/mL, the “BMD MIC” value ([6]; E. coli ATCC 700926 K12 (MG1655), CAMHB, mode of 6 replicates) was 0.015 µg/mL and the “BMD MIC” value ([6]; E. coli ATCC 700928 CFT073 UPEC, CAMHB, mode of 6 replicates) was no more than 0.25 µg/mL. The “BMD MIC” value ([6]; E. coli CI 12-6-83 Hong Kong, mcr-1 pos, ESBL, CAMHB, mode of 6 replicates) was 2 µg/mL, the “Number of isolates with MIC 0.125 (MIC frequency distribution)” value [7] was 4 and the MIC50 [7, 8] was 0.03 µg/mL. The MIC90 [7, 8] was 0.125 µg/mL, the “Number of isolates with MIC 0.03 (MIC frequency distribution)” value ([7]; A. baumannii, worldwide isolates 2011-2013, n = 108, count of isolates at MIC 0.03) was 75 and the “Number of isolates with MIC 0.06 (MIC frequency distribution)” value ([7]; A. baumannii, worldwide isolates 2011-2013, n = 108, count of isolates at MIC 0.06) was 18. The “Number of isolates with MIC 0.25 (MIC frequency distribution)” value ([7]; A. baumannii, worldwide isolates 2011-2013, n = 108, count of isolates at MIC 0.25) was 0, the “Number of isolates with MIC 0.5 (MIC frequency distribution)” value ([7]; A. baumannii, worldwide isolates 2011-2013, n = 108, count of isolates at MIC 0.5) was 2 and the “Number of isolates with MIC 1 (MIC frequency distribution)” value ([7]; A. baumannii, worldwide isolates 2011-2013, n = 108, count of isolates at MIC 1) was 2. The “Number of isolates with MIC 2 (MIC frequency distribution)” value ([7]; A. baumannii, worldwide isolates 2011-2013, n = 108, count of isolates at MIC 2) was 1, the “Number of isolates with MIC 4 (MIC frequency distribution)” value ([7]; A. baumannii, worldwide isolates 2011-2013, n = 108, count of isolates at MIC 4) was 1 and the “Number of isolates with MIC 8 (MIC frequency distribution)” value ([7]; A. baumannii, worldwide isolates 2011-2013, n = 108, count of isolates at MIC 8) was 3. For the same substance, the “Number of isolates with MIC 16 (MIC frequency distribution)” value ([7]; A. baumannii, worldwide isolates 2011-2013, n = 108, count of isolates at MIC 16) was 0, the “Number of isolates with MIC 32 (MIC frequency distribution)” value ([7]; A. baumannii, worldwide isolates 2011-2013, n = 108, count of isolates at MIC 32) was 0 and the “Number of isolates with MIC 64 (MIC frequency distribution)” value ([7]; A. baumannii, worldwide isolates 2011-2013, n = 108, count of isolates at MIC 64) was 0. For the same substance, the “Number of isolates with MIC 128 (MIC frequency distribution)” value ([7]; A. baumannii, worldwide isolates 2011-2013, n = 108, count of isolates at MIC 128) was 0, the “Number of isolates with MIC >16 (MIC frequency distribution)” value ([7]; A. baumannii, worldwide isolates 2011-2013, n = 108, count of isolates at MIC >16) was 0 and the “Number of isolates with MIC >32 (MIC frequency distribution)” value ([7]; A. baumannii, worldwide isolates 2011-2013, n = 108, count of isolates at MIC >32) was 0. The “Number of isolates with MIC >128 (MIC frequency distribution)” value ([7]; A. baumannii, worldwide isolates 2011-2013, n = 108, count of isolates at MIC >128) was 0 and the “Number of isolates with MIC ≤0.015 (MIC frequency distribution)” value ([7]; A. baumannii, worldwide isolates 2011-2013, n = 108, count of isolates at MIC ≤0.015) was 2.
